Results as given in patent publication US12123813B2, “Polymer stabilization of chromogen solutions” (Ventana Medical Systems, Inc., priority 2012, dated 2024).
Structures can show the parent of a compound that is named as a salt.

Assays:
[1] = Water solubility of DAB-polymer complex in chromogen solution; assay type: physicochemical
Excerpt: Sulfate and sulfonate polymers are believed to form a DAB-polymer salt complex where the hydrophilic polymer backbone helps maintain water solubility.

[2] = Polymer screening: DAB sulfate precipitation after KHSO4 addition (visual); assay type: physicochemical; settings: additive in DAB chromogen solution
Description: One embodiment of a DAB base solution comprises DAB chromogen, one or more enhancers, and a stabilizer. […] Exemplary base solutions comprise 5.5 mM DAB, 10 mM imidazole, 10 mM 2-hydroxypyridine, and 1 mM sodium metabisulfite, with a pH of 2.5±0.1. In one embodiment, these compositions were tested using KHSO4 concentrations ranging from 0 to about 10 mM; more typically 0, 1.37, 2.75 and 8.0 mM, with DAB sulfate precipitation being induced at 4° C. overnight.
Polymers were screened for their impact on DAB sulfate precipitation formation by combining an enhanced DAB base solution containing a set amount of the polymer with select molar ratios of potassium hydrogen sulfate, KHSO4, relative to DAB. The enhanced DAB base solution used comprised 5.5 mM DAB·4HCl, 10 mM imidazole, 10 mM 2-hydroxypyridine, 1 mM sodium metabisulfite and 0.05% w/v Brij 35 at pH=2.3±0.1. The potassium hydrogen sulfate concentrations screened were 2.75 and 8.0 mM. […] Solutions were monitored for physical changes (i.e. color or precipitation).
Candidate polymers were screened for their impact on DAB sulfate precipitation formation by combining an enhanced DAB base solution containing a set amount of the polymer with select molar ratios of potassium hydrogen sulfate, KHSO4, relative to DAB. […] Solutions were monitored for physical changes (i.e. color or precipitation).

Structure (SMILES)	formation of water soluble DAB-polymer complex (in words) [1]	inhibition of DAB sulfate precipitation (in words) [2]
NCCOS(=O)(=O)O [2-aminoethylhydrogen sulfate]	did not form water soluble DAB complexes	–
CC(O)CO (centres unmarked) [1,2-propanediol]	–	failed to inhibit DAB sulfate precipitation
